Assay results published in paper PMC6337619, “Identification of Novel Potential Inhibitors of Pteridine Reductase 1 in Trypanosoma brucei via Computational Structure-Based Approaches and in Vitro Inhibition Assays” (Molecules, 2019).
Values joined by “and” are separate entries in the source; they are usually repeats but may differ in a detail not shown here. Identical values can stand only once. “Also recorded” adds a separate entry of the source. Like-named read-outs stand apart in the source and are kept apart here.

Columns and labels:
[1] = In vitro human cytotoxicity assay (resazurin); conditions: human, HeLa cells
Method: (§2) The compounds assayed for trypanocidal activity were also tested to determine if they caused adverse effects against human cells in vitro. For this assay, HeLa cells were used. The cells were cultured in DMEM supplemented with 10% fetal calf serum and antibiotics (penicillin/streptomycin/amphotericin B) at 37 °C in a 5 % CO2 incubator. Cells were plated at a density of 2 × 10^4 cells/well and after an overnight incubation the compounds were assayed for cytotoxic activity by adding three-fold serial dilutions of each compound (with a 100 µM starting concentration) to the 96-well plates, followed by incubation for 48 h. Cell viability was determined using the resazurin method [74]. Resazurin (0.5 mM in phosphate-buffered saline; 20 µL/well) was added to the cells and, after a 2-h incubation, fluorescence was read in a Spectramax M3 plate reader at excitation and emission wavelengths of 560 nm and 590 nm, respectively. Fluorescence readings were converted to percentage cell viability relative to control wells untreated with compounds. Plots of % cell viability versus log[compound] were used to determine IC50 values by non-linear regression using GraphPad Prism (version 5.02, GraphPad Software Inc., San Diego, USA). Three repeats of the experiment were carried out.

[2] = system: T. b. brucei (strain Lister 427); test: Trypanosoma in vitro inhibition assay (resazurin); format: cell-based; conditions: for anti-trypanosomal activity at single concentration: 20 µM, T. brucei BSF in culture; for IC50: blood stream form, 24 h + 24 h resazurin, mean ± SD of three independent experiments, read-out: IC50 against T. brucei BSF in culture
Method: (§1) Compounds RUBi001, RUBi005, and RUBi015 were purchased from MCULE while RUBi002, RUBi004, RUBi007, RUBi008, RUBi010, RUBi011, RUBi012, RUBi014, RUBi016, and RUBi018 were obtained from MolPort (not all the compounds were commercially available). These compounds were assayed for trypanocidal activity by adding 20 μM of each compound to cultures of T. b. brucei (strain Lister 427) in 96-well plates. The parasites were maintained at 37 °C and 5% CO2 in an IMDM medium containing 25 mM HEPES, 10% fetal bovine serum, 1 mM hypoxanthine, 0.05 mM bathocuproine disulfonic acid, 1.5 mM cysteine, 1.25 mM pyruvic acid, 0.09 mM uracil, 0.09 mM cytosine, 0.16 mM thymidine, and 0.014 % 2-mercaptoethanol. Parasites were diluted to 2.4 × 10^4 cells in a volume of 200 µL per well and incubated with the test compounds for 24 h. Parasite percentage viability was determined using the resazurin method. Resazurin (0.5 mM in phosphate-buffered saline; 20 µL/well) was added to each well and incubation continued for a further 24 h, after which fluorescence (Ex560/Em590) was read in a Spectramax M3 microplate reader (Molecular Devices). Trypanocidal activity of the compounds was reported as the percentage of viable parasites in the compound-treated wells when compared to untreated controls (% viability). Pentamidine, an FDA-approved trypanocidal drug, was used as the control drug standard. For compounds that produced <20% viability, IC50 values were subsequently determined. The assays were conducted as described above, except that parasites were incubated with 3-fold serial dilutions of the test compounds and IC50 values derived from % parasite viability vs. log[compound] dose-response plots by non-linear regression analysis using GraphPad Prism (version 5.02, GraphPad Software Inc., San Diego, USA). IC50 evaluations were carried out on three independent occasions and the mean IC50 ± standard deviation is reported in the text. To assess compound interactions, the compounds were assayed for trypanocidal activity when used in combination with WR99210, a known TbDHFR inhibitor [42]. […] For isobologram analysis, the fractional inhibitory concentrations of the RUBi compounds and WR99210 were calculated by dividing the IC50s obtained for the compounds at the various combination ratios with the IC50 obtained for the compounds in the absence of the partner drug, and the FIC values plotted against each other, i.e., RUBi compound FIC versus WR99210 FIC.

[3] = system: T. b. brucei (strain Lister 427); test: Isobologram combination assay with WR99210; format: cell-based; conditions: ratios 75:25, 50:50, 25:75 with TbDHFR inhibitor WR99210
Method: as §1

in vitro = conditions: human, HeLa cells
Method: as §2

HeLa cells = test: In vitro human cytotoxicity assay (resazurin); conditions: at 100 µM
Method: as §2

T. brucei in culture = system: T. brucei in culture; parameters: method as in PMID 16729575, PMID 16569852; conditions: cited from earlier work

SMILES | anti-trypanosomal activity at single concentration [2] | effect in combination with WR99210 (isobologram, FIC) [3] | IC50 ([2]; Trypanosoma brucei, 48 h) | further results
CC[C@H]1CN2CCc3cc(OC)c(OC)cc3[C@@H]2C[C@@H]1C[C@H]1NCCc2cc(OC)c(OC)cc21 [Emetine, reference compound] | – | – | – | IC50 at 48 h [1]: 0.013 µM
O=c1cc(-c2cccc(O)c2O)oc2ccc(O)cc12 [RUBi001, 2-(2,3-dihydroxyphenyl)-6-hydroxychromen-4-one] | did not show anti-trypanosomal activity | – | – | –
COc1ccc2oc3cc(OCC(=O)Nc4c(C)cccc4C)cc(O)c3c(=O)c2c1 [RUBi002, N-(2,6-dimethylphenyl)-2-(1-hydroxy-7-methoxy-9-oxo-xanthen-3-yl)oxy-acetamide] | did not show anti-trypanosomal activity | – | – | –
CC1=NN(c2ccc(C)cc2C)C(=O)/C1=C/NNC(=O)c1cccc([N+](=O)[O-])c1 [RUBi004, N'-{[1-(2,4-dimethylphenyl)-3-methyl-5-oxo-1,5-dihydro-4H-pyrazol-4-ylidene]methyl}-3-nitrobenzohydrazide] | – | reduced inhibition; also recorded: moderate to strong antagonism; also recorded: antagonistic effect | 9.6 ± 3.2 µM | IC50 at 48 h [1]: 23.6 ± 5.8 µM
Cc1ccccc1OCC(=O)NNC(=S)NC(=O)c1ccccc1[N+](=O)[O-] [RUBi005, 2-nitro-N-({2-[(2-methylphenoxy)acetyl]hydrazino}carbothioyl)benzamide] | did not show anti-trypanosomal activity | – | – | –
COc1ccc(NC(=O)CSc2nc3[nH]ncc3c(=O)n2-c2ccccc2)cc1 [RUBi007, N-(4-methoxyphenyl)-2-[(4-oxo-5-phenyl-4,5-dihydro-1H-pyrazolo[3,4-d]pyrimidin-6-yl)sulfanyl]acetamide] | – | reduced inhibition; also recorded: moderate to strong antagonism; also recorded: antagonistic effects | 34.9 ± 17.1 µM | effect in combination with WR99210 (isobologram, FIC) ([3]; listed as RUB007): antagonistic effect; viability at 48 h, 100 µM (in vitro): > 90%; human cell cytotoxicity (HeLa cells): no significant human (human cervix adenocarcinoma (HeLa)) cell cytotoxicity
COc1cc(CNc2nc[nH]n2)ccc1OCc1cccc(C)c1 [RUBi008, [3-Methoxy-4-(3-methyl-benzyloxy)-benzyl]-(1H-[1,2,4]triazol-3-yl)-amine] | did not show anti-trypanosomal activity | – | – | –
Nc1ccc2nc(SCC(=O)N3CCCC3)sc2c1 [RUBi010, 2-{[2-oxo-2-(1-pyrrolidinyl)ethyl]sulfanyl}-1,3-benzothiazol-6-ylamine] | did not show anti-trypanosomal activity | – | – | –
Cc1ccc(NC(=O)Cn2c(-c3nonc3N)nc3ccccc32)cc1F [RUBi011, 2-[2-(4-amino-1,2,5-oxadiazol-3-yl)-1H-benzimidazol-1-yl]-N-(3-fluoro-4-methylphenyl)acetamide] | did not show anti-trypanosomal activity | – | – | –
NS(=O)(=O)c1ccc(NC(=O)NC2CCCCC2)cc1 [RUBi012, 1-cyclohexyl-3-(4-sulfamoylphenyl)urea] | did not show anti-trypanosomal activity | – | – | –
O=C1CC(c2ccc(O)c(O)c2)Oc2cc(O)cc(O)c21 (stereo not drawn) [RUBi014, 2-(3,4-dihydroxyphenyl)-5,7-dihydroxy-3,4-dihydro-2H-1-benzopyran-4-one] | – | reduced inhibition; also recorded: moderate to strong antagonism; also recorded: antagonistic effect | 14.6 ± 9.9 µM | anti-protozoal activity (T. brucei in culture): selectively anti-protozoal with activity against T. brucei in culture; IC50 at 48 h [1]: 32.9 ± 2.2 µM
Cn1c(=O)c2ncn(CC(=O)Nc3ccc(O)cc3)c2n(C)c1=O [RUBi016, 2-(1,3-dimethyl-2,6-dioxo-1,2,3,6-tetrahydro-9H-purin-9-yl)-N-(4-hydroxyphenyl)acetamide] | – | additive effect | 25.4 ± 4.7 µM | viability at 48 h, 100 µM (in vitro): > 90%; human cell cytotoxicity (HeLa cells): no significant human (human cervix adenocarcinoma (HeLa)) cell cytotoxicity
O=C(CC1S/C(=N\N=C2CCCC2)N=C1O)Nc1ccccc1 (stereo not drawn) [RUBi018, 2-[2-(cyclopentylidenehydrazono)-4-hydroxy-2,5-dihydro-1,3-thiazol-5-yl]-N-phenylacetamide] | – | reduced inhibition; also recorded: moderate to strong antagonism; also recorded: antagonistic effect | 12.7 ± 3.7 µM | viability at 48 h, 100 µM (in vitro): > 90%; human cell cytotoxicity (HeLa cells): no significant human (human cervix adenocarcinoma (HeLa)) cell cytotoxicity
CC1(C)N=C(N)N=C(N)N1OCCCOc1cc(Cl)c(Cl)cc1Cl [WR99210, reference compound] | – | – | – | IC50 [2]: 0.5 µM and 0.55 µM
N=C(N)c1ccc(OCCCCCOc2ccc(C(=N)N)cc2)cc1 [pentamidine, reference compound] | – | – | 0.014 µM | –
